{"source": "paper PMC7470033", "about": "“In vitro inhibitory effect of lysionotin on the activity of cytochrome P450 enzymes” (Pharmaceutical Biology, 2020)", "key": {"[1]": {"target": "T1, CYP2C8 (Homo sapiens, UniProt P10632)", "T1 construct": "Pooled HLMs were purchased from BD Biosciences Discovery Labware; tissue BD Biosciences Discovery Labware; host or cells: pooled human liver microsomes", "T1 sequence (P10632 1-490)": "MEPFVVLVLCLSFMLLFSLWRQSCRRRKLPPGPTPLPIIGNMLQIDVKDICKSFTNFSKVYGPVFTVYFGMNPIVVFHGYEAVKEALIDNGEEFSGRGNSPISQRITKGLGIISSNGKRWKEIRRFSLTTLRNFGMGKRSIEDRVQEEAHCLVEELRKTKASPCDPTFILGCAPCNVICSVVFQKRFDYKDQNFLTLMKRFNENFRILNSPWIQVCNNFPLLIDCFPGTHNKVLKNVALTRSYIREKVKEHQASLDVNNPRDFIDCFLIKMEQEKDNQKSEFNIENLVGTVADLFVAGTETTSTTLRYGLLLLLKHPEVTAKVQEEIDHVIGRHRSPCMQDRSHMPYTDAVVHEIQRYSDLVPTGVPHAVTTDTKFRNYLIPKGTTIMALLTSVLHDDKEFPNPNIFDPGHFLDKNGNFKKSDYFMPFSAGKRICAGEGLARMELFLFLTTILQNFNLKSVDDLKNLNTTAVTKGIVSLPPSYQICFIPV", "test": "CYP2C8 inhibition in pooled human liver microsomes (paclitaxel 6α-hydroxylation)", "format": "in vitro ADME", "conditions": "pooled HLMs, paclitaxel 6α-hydroxylation", "procedure": "In this study, lysionotin was incubated with eight CYP isoforms (i.e., 1A2, 3A4, 2A6, 2E1, 2D6, 2C9, 2C19 and 2C8) in pooled human liver microsomes to investigate the interaction between lysionotin and CYPs, which can provide direct evidence for the effect of lysionotin on the activity of CYPs. In vitro, phenacetin (CYP1A2), testosterone (CYP3A4), coumarin (CYP2A6), chlorzoxazone (CYP2E1), dextromethorphan (CYP2D6), diclofenac (CYP2C9), S-mephenytoin (CYP2C19) and paclitaxel (CYP2C8) were used as probe substrates to determine the effects of lysionotin on eight CYP enzymes. In addition, enzyme kinetic studies were conducted to determine the inhibition model of lysionotin on CYP enzymes.\nAll incubations were performed in triplicate, and the mean values were utilised. The typical incubation systems contained 100 mM potassium phosphate buffer (pH 7.4), NADPH generating system (1 mM NADP^+, 10 mM glucose-6-phosphate, 1 U/mL of glucose-6-phosphate dehydrogenase, and 4 mM MgCl2), the appropriate concentration of HLMs, a corresponding probe substrate and lysionotin (or positive inhibitor for different probe reactions) in a final volume of 200 μL.\nThe concentration of lysionotin was 100 μM, and the positive inhibitor concentrations were as follows: 10 μM furafylline for CYP1A2, 1 μM ketoconazole for CYP3A4, 10 μM tranylcypromine for CYP2A6, 50 μM clomethiazole for CYP2E1, 10 μM quinidine for CYP2D6, 10 μM sulfaphenazole for CYP2C9, 50 μM tranylcypromine for CYP2C19, 5 μM montelukast for CYP2C8. Probe substrates, positive inhibitors (except for dextromethorphan and quinidine, which were dissolved in water), and lysionotin were dissolved in methanol, with a final concentration of 1% (v/v), and 1% neat methanol was added to the incubations without inhibitor. There was a 3 min preincubation period (at 37 °C) before the reaction was initiated by adding an NADPH-generating system. The reaction was terminated by adding a 100 μL acetonitrile (10% trichloroacetic acid for CYP2A6) internal standard mix, and the solution was placed on ice. The mixture was centrifuged at 12,000 rpm for 10 min, and an aliquot (50 μL) of supernatant was transferred for HPLC analysis. The instrument used in this study was Agilent 1260 series instrument with DAD and FLD detector, and the quantitative assay for the corresponding metabolites was performed as previously reported and the detection conditions are summarised in Table 2 (He et al. [2015]; Lang et al. [2017]; Zhang et al. [2017]). […]\nThe enzyme kinetic parameters for the probe reaction were estimated from the best fit line, using least-squares linear regression of the inverse substrate concentration versus the inverse velocity (Lineweaver-Burk plots), and the mean values were used to calculate Vmax and Km. Inhibition data from the experiments that were conducted using multiple compound concentrations were represented by Dixon plots, and inhibition constant (Ki) values were calculated using non-linear regression according to the following equation: v=(VmaxS)/(Km(1+I/Ki+S)for competitive inhibition v=(VmaxS)/[(Km+S((1+I/Ki)] for non-competitive inhibition where I is the concentration of the compound, Ki is the inhibition constant, S is the concentration of the substrate, and Km is the substrate concentration at half the maximum velocity (Vmax) of the reaction. The mechanism of the inhibition was inspected using the Lineweaver-Burk plots and the enzyme inhibition models. […]"}, "[2]": {"target": "T2, CYP1A2 (Homo sapiens, UniProt P05177)", "T2 construct": "Pooled HLMs were purchased from BD Biosciences Discovery Labware; tissue BD Biosciences Discovery Labware; host or cells: pooled human liver microsomes", "T2 sequence (P05177 1-516)": "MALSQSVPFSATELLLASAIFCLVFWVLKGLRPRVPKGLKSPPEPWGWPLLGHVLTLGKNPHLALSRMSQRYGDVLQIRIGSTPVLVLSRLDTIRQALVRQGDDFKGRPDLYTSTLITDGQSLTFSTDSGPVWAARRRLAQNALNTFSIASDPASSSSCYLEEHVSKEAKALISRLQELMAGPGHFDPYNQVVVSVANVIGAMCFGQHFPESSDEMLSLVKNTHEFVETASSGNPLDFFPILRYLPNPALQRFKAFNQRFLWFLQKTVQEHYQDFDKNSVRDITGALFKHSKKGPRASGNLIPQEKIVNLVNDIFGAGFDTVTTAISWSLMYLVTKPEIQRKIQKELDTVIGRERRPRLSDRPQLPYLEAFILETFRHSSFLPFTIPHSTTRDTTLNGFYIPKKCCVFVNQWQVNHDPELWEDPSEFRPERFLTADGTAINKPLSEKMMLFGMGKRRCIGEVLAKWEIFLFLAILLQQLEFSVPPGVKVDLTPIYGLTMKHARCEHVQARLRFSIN", "test": "CYP1A2 inhibition in pooled human liver microsomes (phenacetin O-deethylation)", "format": "in vitro ADME", "conditions": "100 μM lysionotin, pooled HLMs, p > 0.05", "procedure": "(§1) In this study, lysionotin was incubated with eight CYP isoforms (i.e., 1A2, 3A4, 2A6, 2E1, 2D6, 2C9, 2C19 and 2C8) in pooled human liver microsomes to investigate the interaction between lysionotin and CYPs, which can provide direct evidence for the effect of lysionotin on the activity of CYPs. In vitro, phenacetin (CYP1A2), testosterone (CYP3A4), coumarin (CYP2A6), chlorzoxazone (CYP2E1), dextromethorphan (CYP2D6), diclofenac (CYP2C9), S-mephenytoin (CYP2C19) and paclitaxel (CYP2C8) were used as probe substrates to determine the effects of lysionotin on eight CYP enzymes. In addition, enzyme kinetic studies were conducted to determine the inhibition model of lysionotin on CYP enzymes. […]\n(§2) The concentration of lysionotin was 100 μM, and the positive inhibitor concentrations were as follows: 10 μM furafylline for CYP1A2, 1 μM ketoconazole for CYP3A4, 10 μM tranylcypromine for CYP2A6, 50 μM clomethiazole for CYP2E1, 10 μM quinidine for CYP2D6, 10 μM sulfaphenazole for CYP2C9, 50 μM tranylcypromine for CYP2C19, 5 μM montelukast for CYP2C8. […] The instrument used in this study was Agilent 1260 series instrument with DAD and FLD detector, and the quantitative assay for the corresponding metabolites was performed as previously reported and the detection conditions are summarised in Table 2 (He et al. [2015]; Lang et al. [2017]; Zhang et al. [2017]). […]"}, "[3]": {"target": "T3, CYP2A6 (Homo sapiens, UniProt P11509)", "T3 construct": "Pooled HLMs were purchased from BD Biosciences Discovery Labware; tissue BD Biosciences Discovery Labware; host or cells: pooled human liver microsomes", "T3 sequence (P11509 1-494)": "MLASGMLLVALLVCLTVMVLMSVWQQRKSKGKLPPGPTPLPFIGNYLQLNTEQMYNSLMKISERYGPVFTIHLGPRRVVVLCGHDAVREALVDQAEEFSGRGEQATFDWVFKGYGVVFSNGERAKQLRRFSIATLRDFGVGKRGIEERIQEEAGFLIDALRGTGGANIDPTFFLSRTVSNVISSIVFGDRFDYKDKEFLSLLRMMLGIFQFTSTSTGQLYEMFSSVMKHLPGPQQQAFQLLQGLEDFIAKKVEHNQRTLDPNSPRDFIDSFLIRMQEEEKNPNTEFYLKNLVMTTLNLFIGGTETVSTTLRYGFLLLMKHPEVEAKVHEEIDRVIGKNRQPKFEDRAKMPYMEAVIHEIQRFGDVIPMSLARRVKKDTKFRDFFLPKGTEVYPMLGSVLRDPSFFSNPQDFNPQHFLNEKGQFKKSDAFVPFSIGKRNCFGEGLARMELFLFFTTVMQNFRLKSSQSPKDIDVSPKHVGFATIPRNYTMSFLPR", "test": "CYP2A6 inhibition in pooled human liver microsomes (coumarin 7-hydroxylation)", "format": "in vitro ADME", "conditions": "100 μM lysionotin, pooled HLMs, p > 0.05", "procedure": "as §1, §2"}, "[4]": {"target": "T4, CYP2E1 (Homo sapiens, UniProt P05181)", "T4 construct": "Pooled HLMs were purchased from BD Biosciences Discovery Labware; tissue BD Biosciences Discovery Labware; host or cells: pooled human liver microsomes", "T4 sequence (P05181 whole entry)": "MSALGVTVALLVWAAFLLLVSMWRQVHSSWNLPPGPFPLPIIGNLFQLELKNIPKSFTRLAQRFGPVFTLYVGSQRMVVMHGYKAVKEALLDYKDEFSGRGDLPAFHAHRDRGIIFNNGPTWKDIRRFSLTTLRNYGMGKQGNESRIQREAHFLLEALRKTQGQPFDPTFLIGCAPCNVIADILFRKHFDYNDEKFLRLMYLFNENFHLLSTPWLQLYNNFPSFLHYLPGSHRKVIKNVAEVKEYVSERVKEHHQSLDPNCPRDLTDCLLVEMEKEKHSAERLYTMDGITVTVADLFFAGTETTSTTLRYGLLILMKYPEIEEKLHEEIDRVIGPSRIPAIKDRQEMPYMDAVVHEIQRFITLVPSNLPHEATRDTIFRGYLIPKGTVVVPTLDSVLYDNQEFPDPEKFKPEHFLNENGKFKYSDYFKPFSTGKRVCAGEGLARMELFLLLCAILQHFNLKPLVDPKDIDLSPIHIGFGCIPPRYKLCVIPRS", "test": "CYP2E1 inhibition in pooled human liver microsomes (chlorzoxazone 6-hydroxylation)", "format": "in vitro ADME", "conditions": "100 μM lysionotin, pooled HLMs, p > 0.05", "procedure": "as §1, §2"}, "[5]": {"target": "T5, CYP2D6 (Homo sapiens, UniProt P10635)", "T5 construct": "Pooled HLMs were purchased from BD Biosciences Discovery Labware; tissue BD Biosciences Discovery Labware; host or cells: pooled human liver microsomes", "T5 sequence (P10635 whole entry)": "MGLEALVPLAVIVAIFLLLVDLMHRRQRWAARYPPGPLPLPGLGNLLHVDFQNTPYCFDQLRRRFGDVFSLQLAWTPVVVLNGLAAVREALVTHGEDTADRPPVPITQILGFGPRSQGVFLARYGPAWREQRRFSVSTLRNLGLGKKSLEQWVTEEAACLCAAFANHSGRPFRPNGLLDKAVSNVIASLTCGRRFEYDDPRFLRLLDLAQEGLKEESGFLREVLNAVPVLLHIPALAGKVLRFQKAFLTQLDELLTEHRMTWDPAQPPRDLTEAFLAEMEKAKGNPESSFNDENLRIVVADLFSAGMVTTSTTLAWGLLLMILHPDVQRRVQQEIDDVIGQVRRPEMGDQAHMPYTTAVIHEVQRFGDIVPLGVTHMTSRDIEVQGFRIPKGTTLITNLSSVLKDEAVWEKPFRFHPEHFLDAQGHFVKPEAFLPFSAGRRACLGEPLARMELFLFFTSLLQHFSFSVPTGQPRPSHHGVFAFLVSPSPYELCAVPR", "test": "CYP2D6 inhibition in pooled human liver microsomes (dextromethorphan O-demethylation)", "format": "in vitro ADME", "conditions": "100 μM lysionotin, pooled HLMs, p > 0.05", "procedure": "as §1, §2"}, "[6]": {"target": "T6, CYP2C9 (Homo sapiens, UniProt P11712)", "T6 construct": "Pooled HLMs were purchased from BD Biosciences Discovery Labware; tissue BD Biosciences Discovery Labware; host or cells: pooled human liver microsomes", "T6 sequence (P11712 whole entry)": "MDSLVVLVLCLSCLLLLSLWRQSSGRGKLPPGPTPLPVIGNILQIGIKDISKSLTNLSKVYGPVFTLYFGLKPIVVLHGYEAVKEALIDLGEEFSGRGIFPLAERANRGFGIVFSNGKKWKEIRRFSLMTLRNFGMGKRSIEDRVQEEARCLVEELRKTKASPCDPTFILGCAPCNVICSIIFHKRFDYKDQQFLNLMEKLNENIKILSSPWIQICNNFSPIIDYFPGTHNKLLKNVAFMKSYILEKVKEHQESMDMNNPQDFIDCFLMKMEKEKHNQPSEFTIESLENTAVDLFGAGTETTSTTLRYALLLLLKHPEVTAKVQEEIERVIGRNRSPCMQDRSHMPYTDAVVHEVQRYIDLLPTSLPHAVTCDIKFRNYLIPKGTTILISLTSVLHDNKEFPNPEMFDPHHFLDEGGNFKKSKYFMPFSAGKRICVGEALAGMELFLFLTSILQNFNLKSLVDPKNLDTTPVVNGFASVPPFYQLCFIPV", "test": "CYP2C9 inhibition in pooled human liver microsomes (diclofenac 4′-hydroxylation)", "format": "in vitro ADME", "conditions": "100 μM lysionotin, pooled HLMs, p > 0.05", "procedure": "as §1, §2"}, "[7]": {"target": "T7, CYP3A4 (Homo sapiens, UniProt P08684)", "T7 construct": "Pooled HLMs were purchased from BD Biosciences Discovery Labware; tissue BD Biosciences Discovery Labware; host or cells: pooled human liver microsomes", "T7 sequence (P08684 whole entry)": "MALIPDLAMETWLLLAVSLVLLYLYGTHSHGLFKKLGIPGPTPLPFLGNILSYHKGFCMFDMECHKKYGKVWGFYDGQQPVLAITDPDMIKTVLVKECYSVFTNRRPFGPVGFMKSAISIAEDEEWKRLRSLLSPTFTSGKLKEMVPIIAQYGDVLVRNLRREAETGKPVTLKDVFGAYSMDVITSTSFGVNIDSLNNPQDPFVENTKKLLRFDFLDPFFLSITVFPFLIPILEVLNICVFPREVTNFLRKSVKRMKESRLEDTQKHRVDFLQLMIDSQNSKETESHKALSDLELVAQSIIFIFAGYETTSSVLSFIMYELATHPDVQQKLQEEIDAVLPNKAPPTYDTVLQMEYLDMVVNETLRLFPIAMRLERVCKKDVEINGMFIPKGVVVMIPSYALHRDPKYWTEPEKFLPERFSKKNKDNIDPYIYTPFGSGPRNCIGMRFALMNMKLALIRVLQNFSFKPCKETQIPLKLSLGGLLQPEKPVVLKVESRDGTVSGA", "test": "Time-dependent inhibition study of CYP3A4 in HLMs", "format": "in vitro ADME", "procedure": "(§3) To determine whether lysionotin could inhibit the activity of CYP3A4, 2C19, and 2C8 in a time-dependent manner, lysionotin (20 μM) was pre-incubated with HLMs (1 mg/mL) in the presence of an NADPH-generating system for 30 min at 37 °C. After incubation, an aliquot (20 μL) was transferred to another incubation tube (final volume 200 μL) containing an NADPH-generating system and probe substrates whose final concentrations were approximate to Km. Then, further incubations were performed to measure the residual activity. After being incubated for 0, 5, 10, 15, and 30 min, the reactions were terminated by adding a 100 μL acetonitrile internal standard mix and then placed on ice; the corresponding metabolites were determined by HPLC.\nTo determine the KI and Kinact values for the inactivation of CYP3A4, the incubations were conducted using higher probe substrate concentrations (approximately 4-fold Km values) and various concentrations of lysionotin (0–50 μM) after different preincubation times (0–30 min), with a two-step incubation scheme, as described above. The value of KI and Kinact was calculated with the equation 1/Kobs = KI/Kinact*1/[I] + 1/Kinact. Where Kobs is the pseudo-first-order rate constant of inactivation at inactivated concentration [I], Kinact is the maximum inactivation rate (a theoretical value that cannot be experimentally observed), and KI is the inactivated concentration when the rate of inactivation reaches half of Kinact."}, "[8]": {"target": "T8, CYP2C19 (Homo sapiens, UniProt P33261)", "T8 construct": "Pooled HLMs were purchased from BD Biosciences Discovery Labware; tissue BD Biosciences Discovery Labware; host or cells: pooled human liver microsomes", "T8 sequence (P33261 whole entry)": "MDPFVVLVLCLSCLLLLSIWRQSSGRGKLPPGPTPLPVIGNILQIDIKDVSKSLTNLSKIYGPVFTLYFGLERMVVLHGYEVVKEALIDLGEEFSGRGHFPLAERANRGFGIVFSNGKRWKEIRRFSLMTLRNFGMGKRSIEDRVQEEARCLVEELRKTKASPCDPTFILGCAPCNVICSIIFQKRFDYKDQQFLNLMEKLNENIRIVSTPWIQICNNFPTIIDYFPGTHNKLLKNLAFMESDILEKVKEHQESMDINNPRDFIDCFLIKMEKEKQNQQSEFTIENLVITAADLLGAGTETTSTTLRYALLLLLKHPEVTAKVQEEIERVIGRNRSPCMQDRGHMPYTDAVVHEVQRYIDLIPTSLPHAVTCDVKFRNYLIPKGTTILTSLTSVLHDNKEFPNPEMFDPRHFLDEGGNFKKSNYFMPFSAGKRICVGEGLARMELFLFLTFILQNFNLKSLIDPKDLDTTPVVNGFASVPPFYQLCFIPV", "test": "Time-dependent inhibition study of CYP2C19 in HLMs", "format": "in vitro ADME", "conditions": "20 μM lysionotin, 0–30 min", "procedure": "as §3"}, "[9]": {"target": "T1, CYP2C8", "test": "Time-dependent inhibition study of CYP2C8 in HLMs", "format": "in vitro ADME", "conditions": "20 μM lysionotin, 0–30 min", "procedure": "as §3"}, "[10]": {"design": "method as in Liu et al. [2013]", "conditions": "oral administration of 50 mg/kg, ref Liu et al. [2013]; cited from earlier work"}}}
{"compound": "COc1ccc(-c2cc(=O)c3c(O)c(OC)c(O)c(OC)c3o2)cc1", "note": "[lysionotin, Lysionotin]", "values": [{"measurement": "IC50", "setting": "[1]", "result": 30, "unit": "µM"}, {"measurement": "effect on the activity of CYP1A2", "setting": "[2]", "result": "not affected"}, {"measurement": "effect on the activity of CYP2A6", "setting": "[3]", "result": "not affected"}, {"measurement": "effect on the activity of CYP2E1", "setting": "[4]", "result": "not affected"}, {"measurement": "effect on the activity of CYP2D6", "setting": "[5]", "result": "not affected"}, {"measurement": "effect on the activity of CYP2C9", "setting": "[6]", "result": "not affected"}, {"measurement": "effect of incubation time on the inhibition of CYP3A4", "setting": "[7]; 20 μM lysionotin, 0–30 min", "result": "time-dependent"}, {"measurement": "CYP3A4 inactivated every minute", "setting": "[7]; during incubation with lysionotin", "result": "about 4.8%"}, {"measurement": "KI (inactivation)", "setting": "[7]; human, human liver microsomes, probe testosterone (approximately 4-fold Km), lysionotin 0–50 μM, preincubation 0–30 min, NADPH, printed as KI/Kinact", "result": 6.62, "unit": "µM"}, {"measurement": "Kinact for inactivation of CYP3A4", "setting": "[7]; lysionotin 0–50 μM, preincubation 0–30 min, NADPH, printed as KI/Kinact", "result": 0.048, "unit": "min⁻¹"}, {"measurement": "effect of incubation time on the inhibition of CYP2C19", "setting": "[8]", "result": "relatively stable"}, {"measurement": "effect of incubation time on the inhibition of CYP2C8", "setting": "[9]", "result": "relatively stable"}, {"measurement": "Cmax in rat plasma", "setting": "[10]", "result": "58.4 ± 10.3", "unit": "ng/mL"}]}
